Measured values taken from patent US7446095B2, “Peptides modulating caspase activation” (priority 2002, dated 2008).
Entries after “also recorded” stand apart in the source; their conditions may differ. Bridges are numbered along the chain shown (N, C = ends). Where no end group is shown, it is not given here.

How the values were obtained:
U-937 cells [1] = test: Direct effect of peptides on U-937 cell proliferation ([3H]-thymidine incorporation); type: cell-based, human; details: peptides in dose 1 mM; U-937 cell proliferation vs control without additions
Method: Cells, cultivated without additions, were taken as a control.
(§1) To assess growth regulative activity of peptides various doses of peptides were added to the cells for 24 h and then the cells were assessed for proliferation, cell viability and DNA-fragmentation. To determine ability of peptides to modulate apoptosis induced by other factors Jurkat cells were treated with 20 ng/ml of CH-11 antibodies without ActD, Raji cells were treated with CH-11 in the presence of 0.5 μg/ml of ActD for 18 h. For induction of apoptosis with TNF-α, cells (Jurkat, MCF7 or U937) were treated for 24 h with 25 ng/ml of the cytokine and then were assessed for proliferation or viability as described above. HepG2 cells were pre-washed before TNF addition with fresh medium to remove endogenous growth factors.

U-937 cells [2] = test: Modulation of AFP-induced apoptosis / growth suppression in U-937 cells ([3H]-thymidine incorporation); type: cell-based, human; details: for Effect on AFP-induced apoptosis in whole cells (in words): 15 min peptide pre-treatment, then 3 μM AFP, 24 h
Method: Cell proliferation was assessed by [^3H]-thymidine incorporation assay after 24 h of incubation.
The cells were treated for […] with various doses of the peptides and thereafter 3 μM pure human AFP was added to each well. Cell proliferation was assessed by the [^3H]-thymidine incorporation assay after 24 h of incubation.
The cells were treated for 15 min with various doses of the peptide and thereafter 3 μM pure human AFP was added to each well. Cell proliferation was assessed by the [^3H]-thymidine incorporation assay after 24 h of incubation.
U937 cells were plated out at a density of 4×10^3 cells/well in flat-bottom 96-well plates (Costar) in the complete medium and incubated for 2 h before reagent additions. Then cells were treated for 24 h with various doses of AFP dissolved in PBS and then assessed for proliferation. Cell treatment with cytotoxic IgM anti-Fas antibody CH-11 was performed as described. U937 cells were treated with 50 ng/ml of CH-11 antibodies for 18 h. Cells were left untreated or were treated with reagents for adequate time intervals and for the last 4 h of culture were subjected to their [^3H]-thymidine (1 Ci/mmol/well) incorporation. Experimental data were expressed as a percentage of [^3H]-thymidine incorporation in triplicate cultures relative to the medium control. Cells, cultivated without additions, were taken as a control.
as §1

[3] = test system: caspase-3 activation (DEVDase activity); test: dATP-dependent Cyt c-induced caspase-3 (DEVDase) activation in cell-free cytosolic extracts of HepG2 cells; type: biochemical, human; details: for Effect on high dose cytochrome c-mediated caspase activation (in words) / Effect on low dose cytochrome c-induced caspase activation (in words): cell-free extracts, 15 min pre-treatment; for Effect on high dose cytochrome c-mediated caspase activation (in words) / Effect on low dose cytochrome c-induced caspase activation (in words) / Effect on the high dose Cyt c-induced caspase activation: peptides 750 μM; for Effect on high dose cytochrome c-mediated caspase activation (in words): high dose (165 nM) cytochrome c; for Effect on low dose cytochrome c-induced caspase activation (in words): low dose (110 nM) cytochrome c; for Effect on the high dose Cyt c-induced caspase activation / Effect on the low dose Cyt c-induced caspase activation (stimulation, or result in words) / Effect on the low dose Cyt c-induced caspase activation (abrogation): DEVDase activity; for Effect on the high dose Cyt c-induced caspase activation / Effect on the low dose Cyt c-induced caspase activation (abrogation): numbers are % abrogation; for Effect on the low dose Cyt c-induced caspase activation (stimulation, or result in words): numbers are % stimulation
Method: Peptides in the concentration of 750 μM were added to the cell extracts 15 min before the cytochrome c addition. Caspase activation was monitored by the cleavage of caspase-3-specific fluorogenic substrate DEVD-AMC.
(§2) HepG2, human hepatocarcinoma cells and human monoblastoma cell line U937 originated from American Type Culture Collection. Cell extracts were prepared by lysing cells in a hypotonic extraction buffer. To obtain the cytosolic S-100 fraction, the cell lysate was centrifuged for 1 h at 100,000×g. Extracts were either used immediately or frozen at −70° C. for later use.
(§3) Cell-free reactions were typically set up in 13-μl reaction volumes. Apoptosis was induced by addition of various doses of bovine heart cytochrom c and/or purified human AFP in the presence of 1 mM dATP. For 13-μl scale reactions, 10 μl of cell extract (˜2-4 mg/ml, as determined by the Bradford assay) were supplemented with 1 μl of dATP, 1 μl of Cyt c and/or AFP solutions in reaction buffer to receive necessary final concentration of reagents. To assess activity of peptides, various doses of peptides being dissolved in the reaction buffer together with 1 mM dATP were added to the cell extracts. To determine ability of the peptides to modulate apoptotic effects of Cyt c and AFP, peptides were added to extracts 10 min before cytochrome c or AFP. Control samples were incubated with the equal volume of the buffer (3 μl) without reagent addition. To initiate apoptosis, extracts were incubated at 37° C. for 40 min.
(§4) At the end of a caspase activation reaction, extract aliquots (5 μl) were supplemented with fluorogenic substrate DEVD-AMC (3 mM) and then incubated for definite time intervals (0.5-1 h) at 37° C. Reactions were terminated by dilution with addition of 2.0 ml of ice-cold 0.2 mM sodium phosphate buffer, pH 7.5, followed by a measurement of fluorescence with a Perkin Elmer MPF-44A (λexc=365 nm and λem=440 nm ) fluorometer. For each sample, the fluorescence intensity was normalized in the respect of cytosolic protein concentration. Caspase activation was presented as the ratio between the normalized fluorescence intensity of the sample and the corresponding value measured with a control sample.
To test ability of various peptides to affect caspase activation induced by exogenous cytochrome c in cell free system, we used cytosolic cell extracts of HepG2 cells. Aliquots of cell extracts were pre-treated with 750 μM of peptides for 15 min and thereafter various doses of cytochrome c was introduced in the reaction mixture to induce caspase activation.

[4] = test system: caspase-3 activation (DEVDase activity); test: Cyt c/AFP-mediated caspase-3 activation in cell-free cytosolic extracts of HepG2 cells; type: biochemical, human; details: for Ability to affect AFP-induced Cyt c-dependent caspase activation: DEVDase activity, numbers are % abrogation; for Effect on Cyt c/AFP-mediated caspase-3 activation (in words): cell-free HepG2 cytosolic extracts, 1 mM dATP
Method: Caspase activation was monitored by the cleavage of specific caspase-3 fluorogenic substrate DEVD-AMC.
as §2, §3, §4

[5] = test system: caspase-3 activation (DEVDase activity); details: cell-free system, no dATP
Method: as §2
Cell-free reactions were typically set up in 13-μl reaction volumes. Apoptosis was induced by addition of various doses of bovine heart cytochrom c and/or purified human AFP in the presence of 1 mM dATP. For 13-μl scale reactions, 10 μl of cell extract (˜2-4 mg/ml, as determined by the Bradford assay) were supplemented with 1 μl of dATP, 1 μl of Cyt c and/or AFP solutions in reaction buffer to receive necessary final concentration of reagents. […]
as §4, with “Caspase activation was presented as the ratio between the normalized fluorescence intensity of the sample and the corresponding value measured with a control sample.” left out

U-937 cells [6] = test system: U-937 cells
[7] = test system: caspase-3 activation (DEVDase activity); test: dATP-dependent Cyt c-induced caspase-3 (DEVDase) activation in cell-free cytosolic extracts of HepG2 cells; type: biochemical, human

Molecule | Effect on the cell growth (% of control) (U-937 cells [1]) | Effect on AFP-induced apoptosis in whole cells (in words) (U-937 cells [2]) | Effect on high dose cytochrome c-mediated caspase activation (in words) [3] | Effect on low dose cytochrome c-induced caspase activation (in words) [3] | Effect on the high dose Cyt c-induced caspase activation ([3]; cell-free system) | Effect on the low dose Cyt c-induced caspase activation (stimulation, or result in words) ([3]; cell-free system) | Ability to affect AFP-induced Cyt c-dependent caspase activation ([4]; cell-free system) | also measured
*Cys-Cys-His-Gly-Asp-Leu-Leu-Glu-Cys* (CCHGDLLEC; disulfide 1-9) [Cyclic peptide from human serum albumin] | +18 % of control | no activity | no activity | no effect | no effect | no effect | no effect | –
*Cys-Gly-His-Gly-Asp-Leu-Leu-Glu-Cys* (CGHGDLLEC; disulfide 1-9 (inferred)) [Cyclic peptide from HSA, Cys substituted for Gly] | – | did not affect | – | – | – | – | – | –
HGDLLE [Linear peptide from HSA] | +20 % of control | did not affect | significant inhibition | significant abrogation | 90% abrogation | – | no effect | Effect on the low dose Cyt c-induced caspase activation (abrogation) ([3]; cell-free system): 70% abrogation
*Cys-*Cys-Arg-Gly-Asp-Val-Leu-Asp-Cys* [apocyclin-A] | +12 % of control | completely abrogates; also recorded: completely cancelled | decreased; also recorded: significantly inhibited; also recorded: practically completely abrogated; also recorded: significant inhibition | significantly enhanced; also recorded: moderately supported; also recorded: notably enhanced; also recorded: same stimulation as full-length AFP molecule | 50-80% | 30% stimulation | 70-80% | Induction of DEVD-ase activity without dATP addition (in words) [5]: unable to induce; Abrogation of the total anti-Fas-mediated apoptosis effect (U-937 cells [6]; 0.5 mM peptide, U-937 cells, various doses of CH-11): about 50%; Inhibition of anti-Fas-induced apoptosis (in words) (U-937 cells [6]; peptide concentration up to 1 mM, U-937 cells): more significant inhibition; Inhibition of anti-Fas-mediated cell death (in words) (U-937 cells [6]; summary statement, concentration not given): significantly inhibits; Stimulation of proliferation relatively to the medium control (U-937 cells [2]; 15-min pre-treatment with 1 mM, 24-h cultivation): 15%; Inhibition of caspase activation induced by high doses of endogenous cytochrome c ([3]; peptide 750 μM, cell-free system): 50-70%; Effect on Cyt c/AFP-mediated caspase-3 activation (in words) [4]: abrogates; also recorded: cancelled; Inhibition of Cyt c/AFP-mediated caspase activation ([4]; cell-free system, combined cytochrome c/AFP treatment): 60-80%
RGDVLD [Linear 6-mer peptide from AFP] | +10 % of control | did not revealed any apoptosis-regulating activity; also recorded: incapable of regulation | significant inhibition | significant abrogation | 80% abrogation | – | no effect | Effect on AFP-induced apoptosis in whole cells (in words) (U-937 cells [2]; listed as p25): not in the whole cells; Effect on the low dose Cyt c-induced caspase activation (abrogation) ([3]; cell-free system): 30-50%; Retention of apocyclin-A's modulation of Cyt c-mediated caspase activation in a cell-free system (in words) ([3]; summary statement): partially retained this activity; Effect on Cyt c/AFP-mediated caspase-3 activation (in words) [4]: able to abrogate
*Cys-Gly-Arg-Gly-Asp-Val-Leu-Asp-Cys* | −12 % of control | failed to abrogate; also recorded: no activity | no activity | no effect | no effect | no effect | no effect | –
AFP: Human alpha-fetoprotein isolated from the cord serum, purity not less than 99.8% (protein, UniProt P02771 19-609, looked up) Alpha-fetoprotein: RTLHRNEYGIASILDSYQCTAEISLADLATIFFAQFVQEATYKEVSKMVKDALTAIEKPTGDEQSSGCLENQLPAFLEELCHEKEILEKYGHSDCCSQSEEGRHNCFLAHKKPTPASIPLFQVPEPVTSCEAYEEDRETFMNKFIYEIARRHPFLYAPTILLWAARYDKIIPSCCKAENAVECFQTKAATVTKELRESSLLNQHACAVMKNFGTRTFQAITVTKLSQKFTKVNFTEIQKLVLDVAHVHEHCCRGDVLDCLQDGEKIMSYICSQQDTLSNKITECCKLTTLERGQCIIHAENDEKPEGLSPNLNRFLGDRDFNQFSSGEKNIFLASFVHEYSRRHPQLAVSVILRVAKGYQELLEKCFQTENPLECQDKGEEELQKYIQESQALAKRSCGLFQKLGEYYLQNAFLVAYTKKAPQLTSSELMAITRKMAATAATCCQLSEDKLLACGEGAADIIIGHLCIRHEMTPVNPGVGQCCTSSYANRRPCFSSLVVDETYVPPAFSDDKFIFHKDLCQAQGVALQTMKQEFLINLVKQKPQITEEQLEAVIADFSGLLEKCCQGQEQEVCFAEEGQKLISKTRAALGV | – | – | – | – | 80% abrogation | 50% stimulation | – | Caspase activation in 'silent' cytosolic extracts with low suboptimal dose of exogenous cyt-c and dATP (in words) ([7]; AFP 7 μM, time-dependent, up to two hours): triggered the process of caspase activation; Caspase activation in the absence of dATP (in words) ([7]; S100 cytosolic extract, no dATP): did not induce any caspase activation; Induction of caspase-3-specific DEVDase activity in S100 cytosolic extract (in words) ([7]; protein 7 μM with dATP 1 mM, no exogenous cyt-c, up to 2 h): triggered dATP-dependent induction
